# Data as given in patent US20150175603A1, “TRICYCLIC COMPOUNDS AS KAT II INHIBITORS” (PFIZER INC., priority 2012, published 2015).
# Structures can show the parent of a compound that is named as a salt.
# Biological target: human KAT II (hKAT II) enzyme (Homo sapiens, UniProt Q8N5Z0)
# Test: KAT II Inhibition Spectra Assay
# Type: biochemical
# Conditions: single determination unless marked a (geometric mean of 2-4 determinations); decrease in OD370, L-kynurenine substrate, 37° C. for 15-20 h; read-out: KATII IC50
# Experimental: KAT II Inhibition Spectra Assay
# Formation of kynurenic acid (KYNA) is indirectly assessed by a decrease in light absorbance at 370 nm (OD370) as the L-kynurenine (KYN) substrate is converted by the human KAT II (hKAT II) enzyme into KYNA. An inhibitor would therefore inhibit the decrease in OD370.
# The protocol was performed by placing the following reagents into a Costar 384 well black plate (30 μL total assay volume/well): • 10 μL of 3× concentrated compound; • 10 μL of 3× concentrated substrate mix (BGG (Sigma G-5009); 3 mM L-Kynurenine in 150 mM Tris Acetate (Sigma K3750); 3 mM α-ketoglutaric acid in 150 mM Tris Acetate (Sigma K2010); and 210 μM pyridoxal 5-phosphate (PLP) in 150 mM Tris Acetate (Sigma 9255)); and • 10 μL of 3× concentrated enzyme (15 nM enzyme in 150 mM Tris Acetate with 0.3% bovine serum).
# Plates were sealed and incubated at 37° C. for 15-20 h before reading OD370 on a SpectraMax Plus plate reader. IC50s were generated by comparing the efficacy of compounds across a concentration range to inhibit a reduction in the OD370 value relative to assay wells with DMSO added in place of concentrated compound. Biological data for the Examples may be found in Table 2.
# human KAT II (hKAT II) enzyme, sequence (Q8N5Z0 30-425): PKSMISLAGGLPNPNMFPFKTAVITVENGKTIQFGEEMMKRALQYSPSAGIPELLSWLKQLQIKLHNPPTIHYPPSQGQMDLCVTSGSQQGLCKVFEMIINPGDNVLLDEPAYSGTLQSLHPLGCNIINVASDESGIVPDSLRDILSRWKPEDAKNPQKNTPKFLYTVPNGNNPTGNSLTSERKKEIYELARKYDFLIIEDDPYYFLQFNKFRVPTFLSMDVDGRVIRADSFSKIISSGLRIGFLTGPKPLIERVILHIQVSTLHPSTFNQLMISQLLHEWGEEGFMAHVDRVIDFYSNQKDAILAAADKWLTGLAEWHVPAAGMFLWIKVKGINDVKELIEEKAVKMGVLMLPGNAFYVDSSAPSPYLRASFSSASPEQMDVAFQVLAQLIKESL
row,SMILES,IC50 [nM]
1,"NC1Cc2cc(-c3cccc4cnccc34)ccc2-n2c1n[nH]c2=O (stereo not shown) [Example 12, 4—amino—7—(isoquinolin—5—yl)—4,5—dihydro[1,2,4]triazolo[4,3—a]quinolin—1(2H)—one, trifluoroacetate salt]",334
2,"NC1Cc2cc(-c3cccc(Cl)c3)ccc2-n2c1n[nH]c2=O (stereo not shown) [Example 14, 4—amino—7—(3—chlorophenyl)—4,5—dihydro[1,2,4]triazolo[4,3—a]quinolin—1(2H)—one, trifluoroacetate salt]",156
3,"NC1Cc2cc(Oc3ccccc3)cnc2-n2c1n[nH]c2=O (single isomer, unassigned; ent-1) [Example 2, 6-Amino-3-phenoxy-6,8-dihydro[1,2,4]triazolo[4,3-a][1,8]naphthyridin-9(5H)-one, ENT-1]",59
4,"CC(=O)c1cccc(-c2ccc3c(c2)CC(N)c2n[nH]c(=O)n2-3)c1 (stereo not shown) [Example 25, 7—(3—acetylphenyl)—4—amino—4,5—dihydro[1,2,4]triazolo[4,3—a]quinolin—1(2H)—one, trifluoroacetate salt]",91.9
5,"Cn1cc(-c2ccc3c(c2)CC(N)c2n[nH]c(=O)n2-3)cn1 (stereo not shown) [Example 18, 4—amino—7—(1—methyl—1H—pyrazol—4—yl)—4,5—dihydro[1,2,4]triazolo[4,3—a]quinolin—1(2H)—one, trifluoroacetate salt]",1360
6,"NC1Cc2cc(-c3cccc(OC(F)(F)F)c3)ccc2-n2c1n[nH]c2=O (stereo not shown) [Example 23, 4—amino—7—[3—(trifluoromethoxy)pheny1]—4,5—dihydro[1,2,4]triazolo[4,3—a]quinolin—1(2H)—one, trifluoroacetate salt]",684
7,"COc1cncc(-c2ccc3c(c2)CC(N)c2n[nH]c(=O)n2-3)c1 (stereo not shown) [Example 13, 4—amino—7—(5—methoxypyriclin—3—yl)—4,5—dihydro[1,2,4]triazolo[4,3—a]quinolin—1(2H)—one, trifluoroacetate salt]",673

# More lines, now with the values ahead:
row,IC50 [nM],SMILES
1,591,"Cc1ccc(C)c(-c2ccc3c(c2)CC(N)c2n[nH]c(=O)n2-3)c1 (stereo not shown) [Example 38, 4—amino—7—(2,5-dimethylphenyl)—4,5—dihydro[1,2,4]triazolo[4,3—a]quinolin—1(2H)—one, trifluoroacetate salt]"
2,534,"CC(C)Oc1cccc(-c2ccc3c(c2)CC(N)c2n[nH]c(=O)n2-3)c1 (stereo not shown) [Example 30, 4—amino—7—[3—(propan—2—yloxy)phenyl]—4,5—dihydro[1,2,4]triazolo[4,3—a]quinolin—1(2H)—one, trifluoroacetate salt]"
3,790,"NC1Cc2cc(-c3ccccc3)ccc2-n2c1n[nH]c2=O (stereo not shown) [Example 45, 4—amino—7—phenyl—4,5-dihydro[1,2,4]triazolo[4,3—a]quinolin—1(2H)—one, hydrochloride salt]"
4,215,"NC1Cc2cc(-c3cccc(C(F)(F)F)c3)ccc2-n2c1n[nH]c2=O (stereo not shown) [Example 27, 4—amino—7—[3—(trifluoromethyl)phenyl]—4,5—dihydro[1,2,4]triazolo[4,3-a]quinolin—1(2H)—one, trifluoroacetate salt]"
5,357,"COc1cccc(-c2ccc3c(c2)CC(N)c2n[nH]c(=O)n2-3)c1 (stereo not shown) [Example 28, 4—amino—7—(3—methoxyphenyl)—4,5—dihydro[1,2,4]triazolo[4,3—a]quinolin—1(2H)—one, trifluoroacetate salt]"
6,1080,"Cn1cc2c(-c3ccc4c(c3)CC(N)c3n[nH]c(=O)n3-4)cccc2n1 (stereo not shown) [Example 41, 4—amino—7—(2—methyl—2H—indazol—4—yl)—4,5—dihydro[1,2,4]triazolo[4,3—a]quinolin—1(2H)—one, trifluoroacetate salt]"
7,660,"Cc1ccccc1-c1ccc2c(c1)CC(N)c1n[nH]c(=O)n1-2 (stereo not shown) [Example 31, 4—amino—7—(2—methylphenyl)—4,5—dihydro[1,2,4]triazolo[4,3—a]quinolin—1(2H)—one, trifluoroacetate salt]"
8,364,"NC1Cc2cc(-c3cccc(F)c3F)ccc2-n2c1n[nH]c2=O (stereo not shown) [Example 26, 4—amino—7—(2,3-difluorophenyl)—4,5—dihydro[1,2,4]triazolo[4,3—a]quinolin—1(2H)—one, trifluoroacetate salt]"
9,637,"COc1cc2c(cc1Cc1ccccc1)CC(N)c1n[nH]c(=O)n1-2 (stereo not shown) [Example 47, 4—amino—7—benzyl—8—methoxy—4,5—dihydro[1,2,4]triazolo[4,3—a]quinolin—1(2H)—one, hydrochloride salt]"
